From US20020127182A1, “Paramagnetic metal ion-based macrocylic magnetization transfer contrast agents and method of use” (Board of Regents, The University of Texas System, priority 2000, published 2002)

Assays:
Type in all cases: physicochemical
[1] = Bound water lifetime τM^298 of Ln(1)^3+ complexes by fitting temperature dependent 17O NMR bound water line widths; exchange limit regime Δω•τM calculated; settings: for τM (bound water lifetime): Ln(1)^3+ complexes, 298 K
Protocol: A first experiment, examined the life times at 298° K, τM^298, of water molecules bound to various lanthanide-macrocylic complexes of the present invention, and having the general formula, Ln(1)^3+, where the four pendent arms R, R′, R″ and R″′ are all ethyl-acetamidoacetate (i.e., LnDOTA-4AmCE^3+), as depicted below: [drawing 4]
(§1) Individual τM^298 values were obtained by fitting the temperature dependent ^17O NMR bound water line widths according to standard exchange theory. […] Because the bulk water ^17O resonance of Yb(1) solution was relatively narrow at all temperatures, no attempt was made to determine τM^298 for this complex based on the ^17O NMR line width data from bulk water. However, a fit to the bound-water ^1H NMR line width gave a τM^298 of 5.8 μs for Yb(1), consistent with the trend shown in FIG. 3. Moreover, ^1H NMR line width fitting gave very similar results for those systems for which the bound water is directly observable.
(§2) As further illustrated in Table 1, the proton chemical shifts of bound water in these lanthanide-macrocylic complexes, δ, relative to bulk water, at 0 ppm are generally highly shifted, either more than 6 ppm downfield or upfield (i.e., ±6 ppm or more), depending upon the properties of the central lanthanide ions. At 1.5 Tesla (T), a magnetic field strength presently used by many commercial MRI scanners, the exchange limit regimes, Δω•τM, of Eu(1)^3+, Tb(1)^3+, Dy(1)^3+, and Ho(1)^3+ are all greater than 1. At higher fields, however, such as 4.7 T and 11.75 T, more lanthanide complexes have exchange limit regimes greater than 1, with Δω•τM increasing as field strength increases. Therefore, favorable MT contrast effects are available for a broad range of lanthanide-macrocylic complexes over a broad range of magnetic field strengths.

[2] = Proton chemical shift of bound water of Ln(1)^3+ complexes relative to bulk water (1H NMR); settings: relative to bulk water at 0 ppm
Excerpt: as §2, with “strengths. […]” for “strengths.”

[3] = MT profiles (Z-profiles, CEST profiles) of Ln(1)^3+ complexes at 4.7 T; settings: for bound water position at which saturating RF pulse is directed: bulk water at 0 ppm, aqueous 62.5 mM, neutral pH, about 22° C.
Protocol: In a second experiment, MT profiles, also known as Z-profiles or CEST profiles, were obtained for lanthanide-macrocylic complexes of the general formula Ln(1)^3+. FIGS. 4-7 show representative spectra in the absence of saturation (bulk water peak at 0 ppm truncated to make the bound water peaks more visible) and MT profiles for Eu(1)^3+, Pr(1)^3+, Nd(1)^3+ and Yb(1)^3+ complexes, respectively, all measured at 4.7 T. All experiments were conducted using aqueous 62.5 mM Ln(1)^3+ adjusted to neutral pH and about 22° C., using an saturation duration time of 1 s, RF power of 16 db, and a 2.5 cm surface coil. […] Among these three complexes, Eu(1)^3+, shown in FIG. 4, had the greatest effect when the saturating pulse was centered at about 50 ppm (arrow): about a 60% decrease in the magnetization of bulk water, Ms, as compared to the magnetization of bulk water in the absence of a saturating pulse, Mo. Importantly, as indicated by a Ms/Mo of about 100%, when the counter-position (i.e., −50 ppm) was saturated, there was no distortion in the bulk water signal. Of course when the saturation pulse is directed to 0 ppm (arrow) there is no signal and therefore Ms/Mo is about 0%.

[4] = MT MR imaging of vial phantom with Ln(1)^3+ complexes at 4.7 T; settings: saturating bound water, 62.5 mM, neutral pH
Protocol: A third series of experiments was performed to examine the ability of lanthanide-macrocylic complexes of the general formula Ln(1)^3+ to enhance MRI contrast by MT. […] The inner vial contains 62.5 mM Eu(1)^3+ or Nd(1)^3+ at neutral pH, while the outer vial is pure water. T1-weighted spin-echo images (TR/TE=500/18 ms, 256×256 data matrix) were obtained at about 22° C. and a field strength of 4.7 T. MT was achieved by applying RF irradiation for 1 s, with a power of 16 db by using a 2.5 cm surface coil. […] The inner vial contains 62.5 mM Nd(1)^3+ at neutral pH, while the outer vial is pure water. The irradiation duration time was 2 s, with a power of 41 db by using a 2.5 cm surface coil.
These levels of contrast are much better than expected for diamagnetic CAs where the resonance signal of the NH or OH group undergoing chemical exchange is only a few ppm away from the resonance signal of bulk water.

[5] = MT profiles of Eu(2)^- complex versus pH and saturation power; settings: saturating bound water at about 57 ppm; 62.5 mM, 2 s, 41 db
Protocol: In a seventh experiment, MT profiles were obtained for 62.5 mM aqueous solutions of the Eu(2)^− lanthanide-macrocylic complex. A saturating RF pulse of 2 s at the resonance frequency of bound water or amide protons, with a power of 41 db, was applied to a 3.5 cm volume coil. […] The same set of data was plotted versus the bound water lifetime, τM^298, or the exchange limiting regime, Δω•τM, as shown in FIG. 17. The largest MT occurs for a Δω•τM ranging from about 12 to about 17, and optimally about 15.

[6] = 500 MHz 1H NMR spectrum of Eu(2)^- complex, exchangeable sites; settings: aqueous, pH 7.4, 25° C.
Excerpt: Two sites in the complex (denoted by the symbols *) are chemically exchangeable with bulk water (denoted by the symbol ? ): one is from Eu^3+-bound water at about 57 ppm, and another is from four equivalent amide protons on the pendent arms at about −6 ppm.

[7] = pH dependence of bound water and amide proton lifetimes τM^298 of Eu(2)^- by variable temperature 1H NMR line width fitting
Protocol: In a sixth series of experiments, the pH dependence of the bound water (FIG. 14) and the amide (FIG. 15) protons lifetimes, τM^298, were determined by variable temperature ^1H NMR line width fitting. The chemically exchangeable bound water and amide protons have different dependence on pH. For bound water protons, the slowest exchange, i.e., largest τM^298, takes place at pH 7 (FIG. 14). Moreover, the pH dependence may be divided into two linear ranges: an acidic range where τM^298=68.6*pH−172.5; and a basic range where τM^298=−128.2*pH+1212.6, respectively. For the amide protons, the slowest exchange is at pH 5.5 (FIG. 15).

[8] = 1H NMR spectra of Ln(9)^3+ complexes, exchangeable amide protons
Excerpt: For certain Ln(9)^3+ complexes, for example, with Ln equal to Yb or Tm, the bound water molecules are ^1H NMR invisible probably due to the fast exchange between the bound water and the bulk water. […] Unfortunately, the NMR signal was invisible, probably due to its fast exchange with the bulk water. However, the eight exchangeable amide protons present as two resonance peaks with equivalent intensity, at −14.5 (Ha) and −17.7 (Hb) ppm, respectively, are visible.

[9] = τM^298 from fit to bound-water 1H NMR line width
Excerpt: as §1

Compound | Δω●τM (exchange limit regime) ([1]; 4.7 T) | Δω●τM (exchange limit regime) ([1]; 11.75 T) | τM (bound water lifetime) [1] [μs] | δ, proton chemical shift of bound water [2] [ppm] | Δω●τM (exchange limit regime) ([1]; 1.5 T) | also measured
CCOC(=O)CNC(=O)CN1CCN(CC(=O)NCC(=O)OCC)CCN(CC(=O)NCC(=O)OCC)CCN(CC(=O)NCC(=O)OCC)CC1.[Dy+3] [Dy(1)^3+] | 15.4 | 38.5 | 17 | −720 | – | Δω●τM (exchange limit regime) ([1]; 1.5 T, listed as Dy^3+): 4.9
CCOC(=O)CNC(=O)CN1CCN(CC(=O)NCC(=O)OCC)CCN(CC(=O)NCC(=O)OCC)CCN(CC(=O)NCC(=O)OCC)CC1.[Er+3] [Er(1)^3+] | 2.3 | 5.7 | 9 | 200 | 0.7 | –
CCOC(=O)CNC(=O)CN1CCN(CC(=O)NCC(=O)OCC)CCN(CC(=O)NCC(=O)OCC)CCN(CC(=O)NCC(=O)OCC)CC1.[Eu+3] [Eu(1)^3+] | 24.0 | 60.0 | 382 | 50 | – | bound water position at which saturating RF pulse is directed [3]: +50 ppm; decrease in the magnetization of bulk water, Ms, compared to Mo ([3]; saturating pulse at about 50 ppm, 62.5 mM, 1 s, 16 db): ~60%; Ms/Mo when counter-position saturated ([3]; saturation at −50 ppm, 62.5 mM): about 100%; Δω●τM (exchange limit regime) ([1]; 1.5 T, listed as Eu^3+): 7.7; decrease in the bulk water signal in the inner vials (MT images) [4]: ~80%
O=C([O-])CNC(=O)CN1CCN(CC(=O)NCC(=O)[O-])CCN(CC(=O)NCC(=O)[O-])CCN(CC(=O)NCC(=O)[O-])CC1.[Eu+3] [Eu(2)^−, LnDOTA-4AmC^−] | – | – | – | – | – | optimal Δω•τM for largest MT [5]: about 15; chemical shift of Eu^3+-bound water [6]: about 57 ppm; chemical shift of four equivalent amide protons on the pendent arms [6]: about −6 ppm; pH of slowest exchange (largest τM^298), bound water protons [7]: 7; pH of slowest exchange, amide protons [7]: 5.5; exchange limiting regimes (Δω•τM), bound water and amide protons ([7]; magnetic field strength of 4.7): > 1
CCOC(=O)CNC(=O)CN1CCN(CC(=O)NCC(=O)OCC)CCN(CC(=O)NCC(=O)OCC)CCN(CC(=O)NCC(=O)OCC)CC1.[Ho+3] [Ho(1)^3+] | 8.6 | 21.5 | 19 | −360 | – | Δω●τM (exchange limit regime) ([1]; 1.5 T, listed as Ho^3+): 2.8
CCOC(=O)CNC(=O)CN1CCN(CC(=O)NCC(=O)OCC)CCN(CC(=O)NCC(=O)OCC)CCN(CC(=O)NCC(=O)OCC)CC1.[Nd+3] [Nd(1)^3+] | 3.2 | 8.0 | 80 | −32 | 1.0 | decrease in the bulk water signal in the inner vials (MT images) [4]: ~80%
CCOC(=O)CNC(=O)CN1CCN(CC(=O)NCC(=O)OCC)CCN(CC(=O)NCC(=O)OCC)CCN(CC(=O)NCC(=O)OCC)CC1.[Pr+3] [Pr(1)^3+] | 1.5 | 3.8 | 20 | −60 | 0.5 | bound water position at which saturating RF pulse is directed [3]: −45 ppm
CCOC(=O)CNC(=O)CN1CCN(CC(=O)NCC(=O)OCC)CCN(CC(=O)NCC(=O)OCC)CCN(CC(=O)NCC(=O)OCC)CC1.[Sm+3] [Sm(1)^3+] | 1.6 | 4.0 | 320 | −4 | 0.5 | –
CCOC(=O)CNC(=O)CN1CCN(CC(=O)NCC(=O)OCC)CCN(CC(=O)NCC(=O)OCC)CCN(CC(=O)NCC(=O)OCC)CC1.[Tb+3] [Tb(1)^3+] | 23.4 | 58.5 | 31 | −600 | – | Δω●τM (exchange limit regime) ([1]; 1.5 T, listed as Tb^3+): 7.5
CCOC(=O)CNC(=O)CN1CCN(CC(=O)NCC(=O)OCC)CCN(CC(=O)NCC(=O)OCC)CCN(CC(=O)NCC(=O)OCC)CC1.[Tm+3] [Tm(1)^3+] | 1.9 | 4.7 | 3 | 500 | 0.6 | –
NC(=O)CN1CCN(CC(N)=O)CCN(CC(N)=O)CCN(CC(N)=O)CC1.[Tm+3] [Tm(9)^3+] | – | – | – | – | – | chemical shift of amide protons, first set (Ha) [8]: −42 ppm; chemical shift of amide protons, second set (Hb) [8]: −52 ppm
CCOC(=O)CNC(=O)CN1CCN(CC(=O)NCC(=O)OCC)CCN(CC(=O)NCC(=O)OCC)CCN(CC(=O)NCC(=O)OCC)CC1.[Yb+3] [Yb(1)^3+] | 0.5 | 1.9 | 3 | 200 | 0.2 | τM^298 of bound water [9]: 5.8 μs
